The target in the test is T1, human PAH with the R408W mutation (Homo sapiens, UniProt P00439, R408W).
T1 construct: expressed in transfected cells
T1 sequence (P00439 1-452 R408W): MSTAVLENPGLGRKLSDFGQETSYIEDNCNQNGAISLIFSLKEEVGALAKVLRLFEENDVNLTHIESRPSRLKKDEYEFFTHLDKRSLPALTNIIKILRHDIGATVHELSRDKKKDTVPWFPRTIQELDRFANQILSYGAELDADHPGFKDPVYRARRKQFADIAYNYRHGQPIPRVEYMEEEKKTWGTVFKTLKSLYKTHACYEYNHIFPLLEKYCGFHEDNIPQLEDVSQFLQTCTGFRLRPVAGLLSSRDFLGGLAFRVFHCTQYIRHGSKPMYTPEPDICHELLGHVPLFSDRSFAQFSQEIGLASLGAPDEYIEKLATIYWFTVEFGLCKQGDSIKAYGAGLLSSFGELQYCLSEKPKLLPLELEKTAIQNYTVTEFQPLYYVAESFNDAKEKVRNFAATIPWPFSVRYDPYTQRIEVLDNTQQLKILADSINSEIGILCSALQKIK
Put plainly: Cell Based Phenylalanine Flux Assay.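 Further: after compound treatment, cells received sepiapterin plus isotope-labelled Phenylalanine for 4 hours, then labelled Tyrosine in the medium was quantified, 10-point 2-fold dilution series run in duplicate.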 To be noted: A375 cells expressing human PAH R408W; 24 hrs compound incubation; 13C-Tyrosine by LC-MS; average where tested multiple times; read-out: AC50.

The structures appear in SMILES notation. Bounds are passed on as bounds.

The term AC50 denotes the midpoint of the concentration-response curve, whichever way the signal moves. As to `c1cc(C2CC2)c2cc([C@@H]3c4nc[nH]c4CCN3c3cnccn3)nn2c1` [Example 2225, (S)-4-(4-cyclopropylpyrazolo[1,5-a]pyridin-2-yl)-5-(pyrazin-2-yl)-4,5,6,7-tetrahydro-1H-imidazo[4,5-c]pyridine], the concentration at half-maximal activity (AC50) was less than 500 nM. For the molecule `CC(C)c1cccn2nc([C@@H]3c4nc[nH]c4CCN3c3nnc(C(C)(F)F)o3)cc12` [Example 2231, (S)-2-(1,1-difluoroethyl)-5-(4-(4-isopropylpyrazolo[1,5-a]pyridin-2-yl)-1,4,6,7-tetrahydro-5H-imidazo[4,5-c]pyridin-5-yl)-1,3,4-oxadiazole], the AC50 is less than 500 nM. As for `Cc1ncccc1-c1nnc(N2CCc3[nH]cnc3[C@H]2c2cc3c(C(C)C)cccn3n2)o1` [Example 2234, (S)-2-(4-(4-isopropylpyrazolo[1,5-a]pyridin-2-yl)-1,4,6,7-tetrahydro-5H-imidazo[4,5-c]pyridin-5-yl)-5-(2-methylpyridin-3-yl)-1,3,4-oxadiazole], the figure is 500 to 1000 nM; as for `Cc1ncccc1-c1nnc(N2CCc3[nH]cnc3[C@@H]2c2cc3c(C(C)C)cccn3n2)o1` [Example 2235, (R)-2-(4-(4-isopropylpyrazolo[1,5-a]pyridin-2-yl)-1,4,6,7-tetrahydro-5H-imidazo[4,5-c]pyridin-5-yl)-5-(2-methylpyridin-3-yl)-1,3,4-oxadiazole], more than 5000 nM; as for `Cc1ncccc1-c1nnc(N2CCc3[nH]cnc3[C@H]2c2cc3c(Cl)cccn3n2)o1` [Example 2236, (S)-2-(4-(4-chloropyrazolo[1,5-a]pyridin-2-yl)-1,4,6,7-tetrahydro-5H-imidazo[4,5-c]pyridin-5-yl)-5-(2-methylpyridin-3-yl)-1,3,4-oxadiazole], less than 500 nM.

With `c1ccc(N2CCc3[nH]cnc3[C@@H]2c2cc3ccccn3n2)cc1` [Example 2238, (R)-5-phenyl-4-(pyrazolo[1,5-a]pyridin-2-yl)-4,5,6,7-tetrahydro-1H-imidazo[4,5-c]pyridine], the AC50 is 1000 to 5000 nM.

With `c1ccc(N2CCc3[nH]cnc3[C@H]2c2cc3ccccn3n2)cc1` [Example 2239, (S)-5-phenyl-4-(pyrazolo[1,5-a]pyridin-2-yl)-4,5,6,7-tetrahydro-1H-imidazo[4,5-c]pyridine], the AC50 is less than 500 nM.

For the molecule `Cc1cccn2nc([C@@H]3c4nc[nH]c4CCN3C(=O)c3cnc(-c4cnccn4)o3)cc12` [Example 2240, (S)-(4-(4-methylpyrazolo[1,5-a]pyridin-2-yl)-1,4,6,7-tetrahydro-5H-imidazo[4,5-c]pyridin-5-yl)(2-(pyrazin-2-yl)oxazol-5-yl)methanone], the AC50 was 500 to 1000 nM. On to `Cc1cccn2nc([C@H]3c4nc[nH]c4CCN3C(=O)c3cnc(-c4cnccn4)o3)cc12` [Example 2241, (R)-(4-(4-methylpyrazolo[1,5-a]pyridin-2-yl)-1,4,6,7-tetrahydro-5H-imidazo[4,5-c]pyridin-5-yl)(2-(pyrazin-2-yl)oxazol-5-yl)methanone], for which the AC50 was more than 5000 nM. As to `O=C(c1cnc(-c2cnccn2)o1)N1CCc2[nH]cnc2[C@H]1c1cc2c(C(F)(F)F)cccn2n1` [Example 2244, (S)-(2-(pyrazin-2-yl)oxazol-5-yl)(4-(4-(trifluoromethyl)pyrazolo[1,5-a]pyridin-2-yl)-1,4,6,7-tetrahydro-5H-imidazo[4,5-c]pyridin-5-yl)methanone], the AC50 is 500 to 1000 nM. As for `O=C(c1cnc(-c2cnccn2)o1)N1CCc2[nH]cnc2[C@@H]1c1cc2c(C(F)(F)F)cccn2n1` [Example 2245, (R)-(2-(pyrazin-2-yl)oxazol-5-yl)(4-(4-(trifluoromethyl)pyrazolo[1,5-a]pyridin-2-yl)-1,4,6,7-tetrahydro-5H-imidazo[4,5-c]pyridin-5-yl)methanone], the figure is more than 5000 nM; as for `COc1cccn2nc([C@H]3c4nc[nH]c4CCN3c3ccc(C(F)(F)F)cn3)cc12` [Example 2246, (R)-4-(4-methoxypyrazolo[1,5-a]pyridin-2-yl)-5-(5-(trifluoromethyl)pyridin-2-yl)-4,5,6,7-tetrahydro-1H-imidazo[4,5-c]pyridine], more than 5000 nM. For the molecule `COc1cccn2nc([C@@H]3c4nc[nH]c4CCN3c3ccc(C(F)(F)F)cn3)cc12` [Example 2247, (S)-4-(4-methoxypyrazolo[1,5-a]pyridin-2-yl)-5-(5-(trifluoromethyl)pyridin-2-yl)-4,5,6,7-tetrahydro-1H-imidazo[4,5-c]pyridine], the AC50 is less than 500 nM. As for `Cc1nnc(N2CCc3[nH]cnc3[C@H]2c2cc3c(OC(F)(F)F)cccn3n2)o1` [Example 2249, (S)-2-methyl-5-(4-(4-(trifluoromethoxy)pyrazolo[1,5-a]pyridin-2-yl)-1,4,6,7-tetrahydro-5H-imidazo[4,5-c]pyridin-5-yl)-1,3,4-oxadiazole], the figure is less than 500 nM; as for `FC(F)(F)Oc1cccn2nc([C@@H]3c4nc[nH]c4CCN3c3nnc(C(F)(F)F)o3)cc12` [Example 2253, (S)-2-(4-(4-(trifluoromethoxy)pyrazolo[1,5-a]pyridin-2-yl)-1,4,6,7-tetrahydro-5H-imidazo[4,5-c]pyridin-5-yl)-5-(trifluoromethyl)-1,3,4-oxadiazole], less than 500 nM. Regarding `FC(F)Oc1cccn2nc([C@@H]3c4nc[nH]c4CCN3c3ncccn3)cc12` [Example 2254, (S)-4-(4-(difluoromethoxy)pyrazolo[1,5-a]pyridin-2-yl)-5-(pyrimidin-2-yl)-4,5,6,7-tetrahydro-1H-imidazo[4,5-c]pyridine], the AC50 was less than 500 nM.

Consider `FC(F)Oc1cccn2nc([C@H]3c4nc[nH]c4CCN3c3ncccn3)cc12` [Example 2255, (R)-4-(4-(difluoromethoxy)pyrazolo[1,5-a]pyridin-2-yl)-5-(pyrimidin-2-yl)-4,5,6,7-tetrahydro-1H-imidazo[4,5-c]pyridine], for which the AC50 is 1000 to 5000 nM. `FC(F)Oc1cccn2nc([C@@H]3c4nc[nH]c4CCN3c3ncc(C(F)(F)F)cn3)cc12` [Example 2256, (S)-4-(4-(difluoromethoxy)pyrazolo[1,5-a]pyridin-2-yl)-5-(5-(trifluoromethyl)pyrimidin-2-yl)-4,5,6,7-tetrahydro-1H-imidazo[4,5-c]pyridine]: the AC50 is less than 500 nM. The value for `FC(F)Oc1cccn2nc([C@H]3c4nc[nH]c4CCN3c3ncc(C(F)(F)F)cn3)cc12` [Example 2257, (R)-4-(4-(difluoromethoxy)pyrazolo[1,5-a]pyridin-2-yl)-5-(5-(trifluoromethyl)pyrimidin-2-yl)-4,5,6,7-tetrahydro-1H-imidazo[4,5-c]pyridine] was more than 5000 nM. Consider `CC1(c2nnc(N3CCc4[nH]cnc4[C@H]3c3cc4c(Cl)cccn4n3)o2)CC1` [Example 2259, (S)-2-(4-(4-chloropyrazolo[1,5-a]pyridin-2-yl)-1,4,6,7-tetrahydro-5H-imidazo[4,5-c]pyridin-5-yl)-5-(1-methylcyclopropyl)-1,3,4-oxadiazole], for which the AC50 lay in the range of 500 to 1000 nM. With `CC(C)c1cccn2nc([C@H]3c4nc[nH]c4CCN3c3nnc(-c4cccnc4)o3)cc12` [Example 2260, (R)-2-(4-(4-isopropylpyrazolo[1,5-a]pyridin-2-yl)-1,4,6,7-tetrahydro-5H-imidazo[4,5-c]pyridin-5-yl)-5-(pyridin-3-yl)-1,3,4-oxadiazole], the half-maximal activity concentration (AC50) is more than 5000 nM. In the case of `Cc1cccnc1-c1nnc(N2CCc3[nH]cnc3[C@@H]2c2cc3ccccn3n2)o1` [Example 2266, (R)-2-(3-methylpyridin-2-yl)-5-(4-(pyrazolo[1,5-a]pyridin-2-yl)-1,4,6,7-tetrahydro-5H-imidazo[4,5-c]pyridin-5-yl)-1,3,4-oxadiazole], the AC50 was more than 5000 nM. With `Cc1cccnc1-c1nnc(N2CCc3[nH]cnc3[C@H]2c2cc3ccccn3n2)o1` [Example 2267, (S)-2-(3-methylpyridin-2-yl)-5-(4-(pyrazolo[1,5-a]pyridin-2-yl)-1,4,6,7-tetrahydro-5H-imidazo[4,5-c]pyridin-5-yl)-1,3,4-oxadiazole], the AC50 was less than 500 nM. Regarding `Cc1cccnc1-c1nnc(N2CCc3[nH]cnc3[C@@H]2c2cc3c(C)cccn3n2)o1` [Example 2268, (R)-2-(4-(4-methylpyrazolo[1,5-a]pyridin-2-yl)-1,4,6,7-tetrahydro-5H-imidazo[4,5-c]pyridin-5-yl)-5-(3-methylpyridin-2-yl)-1,3,4-oxadiazole], the AC50 was more than 5000 nM.

As for `Cc1cccnc1-c1nnc(N2CCc3[nH]cnc3[C@H]2c2cc3c(C)cccn3n2)o1` [Example 2269, (S)-2-(4-(4-methylpyrazolo[1,5-a]pyridin-2-yl)-1,4,6,7-tetrahydro-5H-imidazo[4,5-c]pyridin-5-yl)-5-(3-methylpyridin-2-yl)-1,3,4-oxadiazole], the AC50 is less than 500 nM.

As for `FC(F)(F)Oc1cccn2nc([C@@H]3c4nc[nH]c4CCN3c3ncccn3)cc12` [Example 2270, (S)-5-(pyrimidin-2-yl)-4-(4-(trifluoromethoxy)pyrazolo[1,5-a]pyridin-2-yl)-4,5,6,7-tetrahydro-1H-imidazo[4,5-c]pyridine], the concentration at half-maximal activity (AC50) is less than 500 nM.

Take `FC(F)(F)Oc1cccn2nc([C@H]3c4nc[nH]c4CCN3c3ncccn3)cc12` [Example 2271, (R)-5-(pyrimidin-2-yl)-4-(4-(trifluoromethoxy)pyrazolo[1,5-a]pyridin-2-yl)-4,5,6,7-tetrahydro-1H-imidazo[4,5-c]pyridine]: the concentration at half-maximal activity (AC50) was more than 5000 nM.

For the origin of these results see patent US20230365592A1 (Agios Pharmaceuticals, Inc., priority 2022, published 2023).
